Reference: ChEMBL document CHEMBL1201862, “PubChem BioAssay data set” (2004)
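1) Cells in 96-well plates. 2) Compound, 48 h, 5 concentrations. 3) Linear interpolation between surrounding doses. 4) Unreached endpoint = highest concentration. GI50 = concentration required for 50% inhibition of growth.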 The source made the active and inactive calls. No stated cut-off is given here; in the data, active = GI50 up to about 1.1 µM and inactive = higher. *1 amine or outer side, *2 acyl side, *3 side chain or, on linkers, in order; H or OH if unused. Where a SMILES comes first, the peptide text is derived from it. [ ]: non-standard residue; d: D form. The star is where a group is joined. ξ: configuration not given here. X53 = CC(C)C[C@H](N[*:1])C1=N[C@H](C(=O)[*:2])CS1; Ile(3ξ) = CCC(C)[C@H](N)C(=O)O; Allyl(1,1-Me2) = C=CC(C)(C)*

How the values were obtained:
Test in all cases: NCI anticancer screen, dose series, 48 h
MOLT-4 = test system: MOLT-4
CAKI-1 = test system: CAKI-1
LOX IMVI = test system: LOX IMVI
HCT-15 = test system: HCT-15
MDA-N = test system: MDA-N
DU-145 = test system: DU-145
HOP-92 = test system: HOP-92
SK-OV-3 = test system: SK-OV-3
IGROV-1 = test system: IGROV-1
EKVX = test system: EKVX
NCI-H226 = test system: NCI-H226
SR = test system: SR
U-251 = test system: U-251
MCF7 = test system: MCF7
NCI-H460 = test system: NCI-H460
SW-620 = test system: SW-620
UO-31 = test system: UO-31
786-0 = test system: 786-0
T47D = test system: T47D
SF-539 = test system: SF-539

| Structure (SMILES) | GI50 (MOLT-4) | GI50 (CAKI-1) | GI50 (LOX IMVI) | GI50 (HCT-15) | GI50 (MDA-N) | GI50 (DU-145) | GI50 (HOP-92) | GI50 (SK-OV-3) | GI50 (IGROV-1) | GI50 (EKVX) | GI50 (NCI-H226) | GI50 (SR) | GI50 (U-251) | GI50 (MCF7) | GI50 (NCI-H460) | GI50 (SW-620) | GI50 (UO-31) | GI50 (786-0) | GI50 (T47D) | GI50 (SF-539) |
| --- | --- | --- | --- | --- | --- | --- | --- | --- | --- | --- | --- | --- | --- | --- | --- | --- | --- | --- | --- | --- |
| CN(Cc1cccc2ccsc12)/N=C\c1ccc(Cl)cc1 | 25.5 µM (inactive) | > 100 µM (inactive) | > 100 µM (inactive) | 34.7 µM | 39.2 µM (inactive) | > 100 µM (inactive) | > 100 µM (inactive) | > 100 µM (inactive) | > 100 µM (inactive) | 50.4 µM (inactive) | 89.9 µM (inactive) | 18.4 µM (inactive) | > 100 µM (inactive) | 32.7 µM (inactive) | > 100 µM (inactive) | 80.2 µM (inactive) | 78.3 µM (inactive) | > 100 µM (inactive) | 49.5 µM (inactive) |  |
| Cc1nc2c(o1)C(=O)c1ccccc1/C2=N/C1CCCCC1N (configuration not stated) | 0.273 µM (active) | 1.71 µM (inactive) | 0.16 µM (active) | 0.547 µM | 0.185 µM (active) | 1.48 µM (inactive) | 0.483 µM (active) |  | 1.26 µM (inactive) | 1.11 µM (active) | 1.97 µM (inactive) | 0.22 µM (active) | 0.312 µM (active) | 0.265 µM (active) | 1.61 µM (inactive) | 0.418 µM (active) | 1.64 µM (inactive) | 1.77 µM (inactive) | 0.345 µM (active) | 0.32 µM (active) |
| CCN(CCCl)c1cc(CN(C)C)cc(NC(=O)c2cc(C(=O)Nc3cc(CN(C)C)cc(N(CC)CCCl)c3)n(C)n2)c1 | < 0.01 µM (active) | 0.557 µM (active) | 0.0685 µM (active) | 2.31 µM | 1.22 µM (inactive) | 0.389 µM (active) | 1.11 µM (active) | 0.331 µM (active) | 0.136 µM (active) |  | 1.43 µM (inactive) | 0.0119 µM (active) | 0.0923 µM (active) | < 0.01 µM (active) | < 0.01 µM (active) | 0.0962 µM (active) | 3.06 µM (inactive) | < 0.01 µM (active) | 0.508 µM (active) | 0.338 µM (active) |
| COc1cc(C(c2c(O)c3ccccc3oc2=O)c2c(O)c3ccccc3oc2=O)cc(Br)c1O | 20.1 µM (inactive) | 15.7 µM (inactive) | 16 µM (inactive) | 17.7 µM | 18.4 µM (inactive) | 17.4 µM (inactive) | 12.5 µM (inactive) | 20.1 µM (inactive) | 15.6 µM (inactive) | 18.8 µM (inactive) | 21.5 µM (inactive) | 14 µM (inactive) | 16.8 µM (inactive) | 16.2 µM (inactive) |  | 20.6 µM (inactive) | 16.4 µM (inactive) | 17.7 µM (inactive) | 22.8 µM (inactive) | 15.6 µM (inactive) |
| COC1/C=C/C(C)C(C(C)C(OC)C(C)CCC(=O)C(C)C(CC(=O)O)OC)OC(=O)/C=C/C=C(\C)CC(OC)CC2=CC(=O)O[C@H](C2)C(C)C(OC)CC(OC)/C=C/C(C)C(OC)C1 (some centres not stated) | 1.46 µM (inactive) | 0.0621 µM (active) |  | 0.885 µM | 0.841 µM (active) | 0.548 µM (active) | 0.124 µM (active) | 0.695 µM (active) | 0.0783 µM (active) | 0.396 µM (active) | 0.543 µM (active) | 0.385 µM (active) | 0.195 µM (active) | 0.439 µM (active) | 0.195 µM (active) | 0.348 µM (active) | 0.458 µM (active) | 0.286 µM (active) | 1.16 µM (inactive) |  |
| C=CC(C)(C)OC[C@@H]1NC(=O)CNC(=O)[C@@H]2CCCN2C(=O)[C@H](C(C)CC)NC(=O)[C@@H]2CSC(=N2)[C@H](CC(C)C)NC1=O (some centres not stated) (cyclo(GS(Allyl(1,1-Me2))[X53][Ile(3ξ)]P)) | 27.5 µM (inactive) | 75 µM (inactive) | > 100 µM (inactive) | 58.1 µM | > 100 µM (inactive) | 77.6 µM (inactive) | 37.3 µM (inactive) | > 100 µM (inactive) | 59 µM (inactive) | 64.3 µM (inactive) | > 100 µM (inactive) | 64.4 µM (inactive) | > 100 µM (inactive) | 40.6 µM (inactive) | 37.6 µM (inactive) |  | 41.6 µM (inactive) | > 100 µM (inactive) | 33.6 µM (inactive) | > 100 µM (inactive) |
| COc1cc(C)c(S(=O)(=O)N(CCCN)OCCCN)c(C)c1C | 13 µM (inactive) | > 100 µM (inactive) | 27.8 µM (inactive) | > 100 µM | 36.9 µM (inactive) | 33.7 µM (inactive) |  | > 100 µM (inactive) | 20.2 µM (inactive) | 31.8 µM (inactive) | > 100 µM (inactive) | 17.6 µM (inactive) | 29.9 µM (inactive) | 19.4 µM (inactive) | 47.1 µM (inactive) | 46.1 µM (inactive) | 41.5 µM (inactive) | 45.6 µM (inactive) | 29.8 µM (inactive) |  |
| COc1cc(C(=O)N(C(=S)OCc2ccccn2)c2ccccc2)cc(OC)c1OC | 25.6 µM (inactive) | 44.7 µM (inactive) | 35 µM (inactive) | 39.6 µM | 96.4 µM (inactive) | 33.8 µM (inactive) |  | > 100 µM (inactive) | 16.3 µM (inactive) | 12.9 µM (inactive) | 26.1 µM (inactive) | 8.47 µM (inactive) | > 100 µM (inactive) | 33.7 µM (inactive) | 35.6 µM (inactive) | 59.7 µM (inactive) | 25.4 µM (inactive) | 77.8 µM (inactive) | 34.9 µM (inactive) | 26.5 µM (inactive) |
| COc1cc(C(=O)/C=C/c2ccc(OCC#N)cc2)cc(OC)c1OC | 27 µM (inactive) | 26.1 µM (inactive) |  | 19.5 µM | 38 µM (inactive) | 28.1 µM (inactive) | 17 µM (inactive) | 40.6 µM (inactive) | 38.4 µM (inactive) | 50.8 µM (inactive) | 23.2 µM (inactive) | 23.6 µM (inactive) | 18 µM (inactive) | 9.02 µM (inactive) | 28.8 µM (inactive) | 18.9 µM (inactive) | 17.6 µM (inactive) | 22.2 µM (inactive) | 17.3 µM (inactive) | 17.3 µM (inactive) |
| COc1cc(/C=C2/SC(c3ccccc3)N(c3ccccc3Cl)C2=O)cc(OC)c1OC (configuration not stated) | 28.6 µM (inactive) | 55.7 µM (inactive) | 17.6 µM (inactive) | 31.6 µM | 28 µM (inactive) | 45 µM (inactive) | 26.1 µM (inactive) | 19.8 µM (inactive) |  | 44.1 µM (inactive) | 30.1 µM (inactive) | 23.8 µM (inactive) | 23.1 µM (inactive) | 35.9 µM (inactive) | 43.7 µM (inactive) | 37.8 µM (inactive) | 35.4 µM (inactive) | 25.9 µM (inactive) | 29.2 µM (inactive) | 19.7 µM (inactive) |
| COc1ccc(CNC(=O)[C@H](Cc2ccc(O)cn2)NC(C)=O)cc1 | > 100 µM (inactive) | > 100 µM (inactive) | > 100 µM (inactive) | > 100 µM | > 100 µM (inactive) | > 100 µM (inactive) |  | > 100 µM (inactive) | > 100 µM (inactive) | 87.7 µM (inactive) | > 100 µM (inactive) | > 100 µM (inactive) | > 100 µM (inactive) | > 100 µM (inactive) | > 100 µM (inactive) | > 100 µM (inactive) | > 100 µM (inactive) | > 100 µM (inactive) | > 100 µM (inactive) | > 100 µM (inactive) |
